Laboratory results as given in US10131652B2, “Pyrimidinyloxy benzene derivatives as herbicides” (E. I. DU PONT DE NEMOURS AND COMPANY, priority 2014, dated 2018).
Where two headings read alike, the source gives them in different places.

Assays:
Format in all cases: in vivo
[1] = system: rice (Oryza sativa); test: Test C flooded paddy test plant response; conditions: Flood, 250 g ai/ha, scale of 0 to 100 where 0 is no effect and 100 is complete control, 13 to 15 days
Procedure, shortened: (§1)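 Greenhouse paddy assay, 13–15 days. Treatment into 3 cm floodwater over 2-leaf plants; visual 0–100 rating against controls.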

[2] = system: ducksalad (Heteranthera limosa); test: Test C flooded paddy test plant response; conditions: Flood, 250 g ai/ha, scale of 0 to 100 where 0 is no effect and 100 is complete control, 13 to 15 days
Procedure, shortened: as §1

[3] = system: barnyardgrass (Echinochloa crus-galli); test: Test C flooded paddy test plant response; conditions: Flood, 250 g ai/ha, scale of 0 to 100 where 0 is no effect and 100 is complete control, 13 to 15 days
Procedure, shortened: as §1

[4] = system: small-flower umbrella sedge (Cyperus difformis); test: Test C flooded paddy test plant response; conditions: Flood, 250 g ai/ha, scale of 0 to 100 where 0 is no effect and 100 is complete control, 13 to 15 days
Procedure, shortened: as §1

[5] = system: pigweed (Amaranthus retroflexus); test: Test B pre-/postemergence plant response; conditions: for pest or weed control at 500 g/ha: 500 g ai/ha
Procedure, shortened: (§2)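 Ratings reflect visual injury versus untreated controls, from 0 for no effect to 100 for complete control, assessed roughly 10 days after treatment. Formulation: non-phytotoxic solvent mix with surfactant; pre- and postemergence sprays on plants grown in loam soil and sand.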

[6] = system: corn (Zea mays); test: Test B pre-/postemergence plant response
Procedure, shortened: as §2

[7] = system: ragweed (common ragweed, Ambrosia elatior); test: Test B pre-/postemergence plant response
Procedure, shortened: as §2

[8] = system: kochia (Kochia scoparia); test: Test B pre-/postemergence plant response
Procedure, shortened: as §2

[9] = system: wheat (Triticum aestivum); test: Test B pre-/postemergence plant response
Procedure, shortened: as §2

[10] = system: barnyardgrass (Echinochloa crus-galli); test: Test B pre-/postemergence plant response; conditions: for pest or weed control at 500 g/ha: 500 g ai/ha
Procedure, shortened: as §2

[11] = system: Italian ryegrass (Lolium multiflorum); test: Test B pre-/postemergence plant response
Procedure, shortened: as §2

[12] = system: giant foxtail (Setaria faberii); test: Test B pre-/postemergence plant response; conditions: for pest or weed control at 500 g/ha: 500 g ai/ha
Procedure, shortened: as §2

[13] = system: galium (catchweed bedstraw, Galium aparine); test: Test B postemergence plant response
Procedure, shortened: (§3)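 Seedlings in a loam soil and sand mix received a postemergence application of the formulated chemicals at the one- to two-leaf stage (2–10 cm tall). They were kept in a greenhouse for roughly 10 days, then scored for injury relative to untreated plants, 0 meaning no effect and 100 complete control.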

[14] = system: blackgrass (Alopecurus myosuroides); test: Test B postemergence plant response
Procedure, shortened: as §3

[15] = 31 g ai/ha, Postemergence, 0 to 100 scale, 0 no effect, 100 complete control
[16] = 125 g ai/ha, postemergence, 0 to 100 scale, 0 no effect, 100 complete control
[17] = Preemergence, 31 g ai/ha, 0 to 100 scale (0 no effect, 100 complete control)
[18] = Preemergence, 125 g ai/ha, 0 to 100 scale where 0 is no effect and 100 is complete control
[19] = Preemergence, 125 g ai/ha, 0 to 100 scale (0 no effect, 100 complete control)
[20] = Postemergence, 500 g ai/ha, 0 to 100 scale (0 no effect, 100 complete control)
[21] = Preemergence, 500 g ai/ha, 0 to 100 scale where 0 is no effect and 100 is complete control

SMILES: COc1cccc(Oc2ncc(Cl)cn2)c1-c1cc(C(F)(F)F)no1 [Compound 104]
- Rice plant response rating [1]: 0
- Ducksalad plant response rating [2]: 75
- Barnyardgrass plant response rating [3]: 20
- Sedge, Umbrella plant response rating [4]: 80
- Plant response rating, Pigweed [5, 15]: 90
- Plant response rating, Pigweed [5, 16]: 90
- Pigweed plant response rating [5, 17]: 80
- Plant response rating, Pigweed [5, 18]: 100
- Plant response rating, Corn [6, 15]: 10
- Plant response rating, Corn [6, 16]: 30
- Plant response rating, Ragweed [7, 15]: 10
- Plant response rating, Ragweed [7, 16]: 10
- Ragweed plant response rating [7, 17]: 0
- Plant response rating, Ragweed [7, 18]: 0
- Plant response rating, Kochia [8, 15]: 50
- Plant response rating, Kochia [8, 16]: 80
- Kochia plant response rating [8, 17]: 0
- Plant response rating, Kochia [8, 18]: 10
- Plant response rating, Wheat [9, 15]: 0
- Plant response rating, Wheat [9, 16]: 10
- Plant response rating, Barnyardgrass [10, 15]: 10
- Plant response rating, Barnyardgrass [10, 16]: 60
- Barnyardgrass plant response rating [10, 17]: 20
- Plant response rating, Barnyardgrass [10, 18]: 80
- Plant response rating, Ryegrass, Italian [11, 15]: 0
- Plant response rating, Ryegrass, Italian [11, 16]: 30
- Ryegrass, Italian plant response rating [11, 17]: 0
- Plant response rating, Ryegrass, Italian [11, 18]: 10
- Plant response rating, Foxtail, Giant [12, 15]: 20
- Plant response rating, Foxtail, Giant [12, 16]: 80
- Foxtail, Giant plant response rating [12, 17]: 40
- Plant response rating, Foxtail, Giant [12, 18]: 100
- Plant response rating, Galium [13, 15]: 90
- Plant response rating, Galium [13, 16]: 100
- Plant response rating, Blackgrass [14, 15]: 70
- Plant response rating, Blackgrass [14, 16]: 100

SMILES: N#Cc1cccc(Oc2ncc(Cl)cn2)c1-c1cc(C(F)(F)F)ccn1 [Compound 158, 5-chloro-2-[3-cyano-2-[4-(trifluoromethyl)-2-pyridinyl]phenoxy]pyrimidine]
- plant injury at 250 g/ha ([1]; Oryza sativa, read-out: Rice plant response rating): 0%
- pest or weed control at 250 g/ha ([2]; Heteranthera limosa, read-out: Ducksalad plant response rating): 50%
- pest or weed control at 250 g/ha ([3]; Echinochloa crus-galli, read-out: Barnyardgrass plant response rating): 0%
- pest or weed control at 250 g/ha ([4]; Cyperus difformis, read-out: Sedge, Umbrella plant response rating): 0%
- pest or weed control at 125 g/ha ([5]; Amaranthus retroflexus, post-emergence, 240 h, 125 g ai/ha, postemergence, 0 to 100 scale, 0 no effect, 100 complete control, read-out: Plant response rating, Pigweed): 80%
- pest or weed control at 500 g/ha ([5]; Amaranthus retroflexus, post-emergence, 240 h, Postemergence, 0 to 100 scale (0 no effect, 100 complete control), read-out: Plant response rating, Pigweed): 100%
- pest or weed control at 500 g/ha ([5]; Amaranthus retroflexus, pre-emergence, 240 h, Preemergence, 0 to 100 scale where 0 is no effect and 100 is complete control, read-out: Plant response rating, Pigweed): 100%
- Pigweed plant response rating [5, 19]: 90
- Corn plant response rating (crop injury, 0 = no effect, 100 = complete kill) at 125 g/ha ([6]; Zea mays, post-emergence, 240 h, 125 g ai/ha, postemergence, 0 to 100 scale, 0 no effect, 100 complete control): 30%
- Corn plant response rating (crop injury, 0 = no effect, 100 = complete kill) at 500 g/ha ([6]; Zea mays, post-emergence, 240 h, Postemergence, 500 g ai/ha, 0 to 100 scale (0 no effect, 100 complete control)): 90%
- Plant response rating, Ragweed [7, 16]: 0
- Plant response rating, Ragweed [7, 20]: 30
- Ragweed plant response rating [7, 19]: 0
- Plant response rating, Ragweed [7, 21]: 20
- Plant response rating, Kochia [8, 16]: 70
- Plant response rating, Kochia [8, 20]: 90
- Kochia plant response rating [8, 19]: 100
- Plant response rating, Kochia [8, 21]: 100
- plant injury at 125 g/ha ([9]; Triticum aestivum, post-emergence, 240 h, 125 g ai/ha, postemergence, 0 to 100 scale, 0 no effect, 100 complete control, read-out: Plant response rating, Wheat): 20%
- plant injury at 500 g/ha ([9]; Triticum aestivum, post-emergence, 240 h, Postemergence, 500 g ai/ha, 0 to 100 scale (0 no effect, 100 complete control), read-out: Plant response rating, Wheat): 70%
- pest or weed control at 125 g/ha ([10]; Echinochloa crus-galli, post-emergence, 240 h, 125 g ai/ha, postemergence, 0 to 100 scale, 0 no effect, 100 complete control, read-out: Plant response rating, Barnyardgrass): 60%
- pest or weed control at 500 g/ha ([10]; Echinochloa crus-galli, post-emergence, 240 h, Postemergence, 0 to 100 scale (0 no effect, 100 complete control), read-out: Plant response rating, Barnyardgrass): 100%
- pest or weed control at 500 g/ha ([10]; Echinochloa crus-galli, pre-emergence, 240 h, Preemergence, 0 to 100 scale where 0 is no effect and 100 is complete control, read-out: Plant response rating, Barnyardgrass): 100%
- Barnyardgrass plant response rating [10, 19]: 90
- Plant response rating, Ryegrass, Italian [11, 16]: 0
- Plant response rating, Ryegrass, Italian [11, 20]: 70
- Ryegrass, Italian plant response rating [11, 19]: 0
- Plant response rating, Ryegrass, Italian [11, 21]: 20
- Foxtail, Giant plant response rating [12, 19]: 90
- pest or weed control at 125 g/ha ([12]; Setaria faberi, post-emergence, 240 h, 125 g ai/ha, postemergence, 0 to 100 scale, 0 no effect, 100 complete control, read-out: Plant response rating, Foxtail, Giant): 50%
- pest or weed control at 500 g/ha ([12]; Setaria faberi, post-emergence, 240 h, Postemergence, 0 to 100 scale (0 no effect, 100 complete control), read-out: Plant response rating, Foxtail, Giant): 100%
- pest or weed control at 500 g/ha ([12]; Setaria faberi, pre-emergence, 240 h, Preemergence, 0 to 100 scale where 0 is no effect and 100 is complete control, read-out: Plant response rating, Foxtail, Giant): 100%
- Plant response rating, Galium [13, 16]: 30
- Plant response rating, Galium [13, 20]: 100
- Plant response rating, Blackgrass [14, 16]: 30
- Plant response rating, Blackgrass [14, 20]: 90
